Entries after “also recorded” stand apart in the source; their conditions may differ.
Key:
WT mice = test: L-BAIBA or D-BAIBA in the drinking water of WT mice: urine Pi excretion, plasma Pi, plasma intact FGF23; type: in vivo, mouse
Experimental: FIG. 5A: 5 mo. old males treated with CO, L-BAIBA, or D-BAIBA in the drinking water for 5 days. FIGS. 5B-5D: same 5 mo. old males from FIG. 5A treated for 30 days, following sacrifice in addition to urine Pi/urine creatinine, plasma Pi and plasma intact FGF23 were determined. Data are mean±SEM, ****p<0.00002, ***p=0.0002, **p=0.002, *p=0.03 vs. CO.
Mouse lines are back-crossed to C57BL6 mice (Charles river laboratories strain ID 027) to reduce variation caused by genetic background and fed a standard chow containing 0.3% bio-available Pi (Teklad 2018S) or for selective experiments a high Pi (HPD diet, 1.2% bio-available Pi, Teklad TD85349). L-BAIBA can be supplied in the drinking water (see Chemical Reagents below). PCR-based genotyping can be done on each experimental animal using gDNA prepared by alkaline lysis from a tail- or ear-snip to verify presence of the Pit1 null, Pit2 null, HA-hPIT1^tg/+ and HSA-Cre^tg/+ alleles.
All blood and urine studies for calcium, creatinine, phosphorus, iPTH, and c/iFGF23 can be performed using commercially available Stanbio kits, Immutopics and R&D ELISAs, or LC-MS/MS-based methods. […] Results can be analyzed using a Perkin Elmer 1420 Multilabel Counter Victor 3 currently located at the Anlyan Center, S-120 or using an Applied Biosystems API6500 QTrap interfaced to a Shimadzu HPLC (LC-20AD, SIL-20AC, CTO-20A) currently located in Anlyan Center, S-260. […]

FGF23 synthesis in bone = test: Stimulation of FGF23 synthesis in bone; type: in vivo; settings: resulting in unsuppressed FGF23 levels
MRGPRD = target: T1, MRGPRD (Mus musculus, UniProt Q91ZB8); settings: young mice, cited from earlier work
T1 construct: young osteocytes which express high levels of MRGPRD; endogenous in cells; host or cells: osteocytes of young mice (in vivo, hind-limb suspension)
T1 sequence (Q91ZB8 1-321): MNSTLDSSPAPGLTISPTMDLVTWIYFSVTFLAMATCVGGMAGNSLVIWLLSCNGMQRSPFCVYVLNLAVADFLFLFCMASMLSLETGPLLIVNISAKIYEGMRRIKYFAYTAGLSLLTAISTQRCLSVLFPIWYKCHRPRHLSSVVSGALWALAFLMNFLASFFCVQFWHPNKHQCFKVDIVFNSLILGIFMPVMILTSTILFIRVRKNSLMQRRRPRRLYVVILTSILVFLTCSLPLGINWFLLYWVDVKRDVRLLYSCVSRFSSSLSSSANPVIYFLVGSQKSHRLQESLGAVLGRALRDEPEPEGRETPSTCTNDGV

FGF23 = target: T2, FGF23 (Homo sapiens, UniProt Q9GZV9); settings: individuals with XLH treated with burosumab; cited from earlier work
T2 construct: individuals treated with burosumab (Crysvita), an FGF23-neutralizing antibody therapy for XLH; endogenous in cells; host or cells: patients with XLH (in vivo, circulating hormone)
T2 sequence (Q9GZV9 25-251): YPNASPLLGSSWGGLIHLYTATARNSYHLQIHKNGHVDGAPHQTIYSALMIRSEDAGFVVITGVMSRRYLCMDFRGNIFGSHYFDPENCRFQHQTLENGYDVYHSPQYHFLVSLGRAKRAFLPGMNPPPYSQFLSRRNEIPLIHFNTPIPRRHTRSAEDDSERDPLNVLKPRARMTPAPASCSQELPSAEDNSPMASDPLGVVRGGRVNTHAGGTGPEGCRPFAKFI

In the case of `C[C@@H](CN)C(=O)O` [L-BAIBA, (S)-3-amino-2-methylpropanoic acid], the “urine Pi excretion (urine Pi/urine creatinine)” value (WT mice; 5 mo. old male WT mice, in the drinking water for 5 or 30 days, vs. CO) is reported as “increased renal Pi-excretion; also recorded: increases urine Pi excretion; also recorded: caused a renal Pi leak”, the “FGF23 levels (plasma intact FGF23)” value (WT mice; 5 month old WT mice treated with L-BAIBA) is reported as “inappropriately normal” and the “FGF23 synthesis in bone” value (FGF23 synthesis in bone) is reported as “able to stimulate FGF23 synthesis in bone”. For the same compound, the osteocyte survival (MRGPRD; activation of MRGPRD, maintaining mitochondrial integrity) was “promotes osteocyte survival” and the “bone loss caused by hind-limb suspension” value (MRGPRD) was “prevents bone loss”.

In the case of “burosumab: an FGF23-neutralizing antibody therapy for XLH”, the “fatigue and endurance reported by treated individuals” value (FGF23) is listed as “improved fatigue and endurance”.
